The values below come from the OPERA property sets (Mansouri et al. 2018).

Turning to `NC12CCCCC1c1ccccc1C2` (stereo unspecified), the logP is 2.94. Turning to `CNC=Nc1ccc(C)cc1C`, the log partition coefficient (logP) worked out at 2.92. For `CCn1cc(C(=O)O)c(=O)c2cc(F)c(N3CCNCC3)nc21` the value was -0.2; for `C[C@@H]1O[C@@H](O[C@@H]2C=C3CC[C@@H]4[C@H](CC[C@]5(C)[C@@H](c6ccc(=O)oc6)CC[C@]45O)[C@@]3(C)CC2)[C@H](O)[C@H](O)[C@H]1O`, 2.48. For `NC(=O)NCCCCn1nc(-c2ccccc2)ccc1=O` the value was 1.21. For `Cc1ccc(Nc2c([N+](=O)[O-])c(C)nn2-c2ccccc2)cc1` the value was 3.43.

A word on the logP: it is the decadic logarithm of the partition coefficient of the neutral form, usually between octanol and water. Higher therefore signals higher lipophilicity.
